Source: paper PMC11720742, “The Ivermectin Related Compound Moxidectin Can Target Apicomplexan Importin α and Limit Growth of Malarial Parasites” (Cells, 2025)
Where “and” joins values, the source holds several entries; their conditions need not be identical. Equal entries are not always repeated. Where two headings read alike, the source gives them in different places.

Columns and labels:
P. falciparum 3D7 strain = test: Drug susceptibility assay for P. falciparum using HRP2 sandwich ELISA; format: cell-based; conditions: read-out: IC50 inhibition of P. falciparum parasites in culture
Method: The P. falciparum 3D7 strain was cultured and maintained according to the standard procedures with minor modifications. Cultures were maintained in RPMI 1640 (GibcoTM, Waltham, MA, USA) supplemented with 0.5% Albumax (GibcoTM), 50 mg/L hypoxanthine (Sigma-Aldrich), 2 gm/L D-glucose (Sigma-Aldrich), 2 gm/L sodium bicarbonate (Sigma-Aldrich), and 56 mg/L of gentamicin (Abbott, Chicago, IL, USA). Blood for parasite cultures was procured from volunteer blood donors with approval from the Institute Ethical Committee.
Samples from the continuous culture of P. falciparum were synchronised to obtain predominant rings of 0.25% parasitemia at 3% haematocrit. Compounds were made at a stock concentration of 10 mM in 100% DMSO, with the FDA-approved antimalarial dihydroartemisinin (a kind gift from IPCA Laboratories, Mumbai, India) as a control. Compound dilutions were made in RPMI 1640 to obtain the desired final test concentrations for the IC50 analysis.
The HRP2-sandwich ELISA assay was performed according to the standard protocol. Briefly, the PfHRP2 protein concentration in the culture wells, indicative of the level of parasitemia, is measured using a sandwich ELISA technique. Serial 2-fold dilutions of compounds (25 µL/well) were manually dispensed into standard 96-well microculture plates (Eppendorf). Subsequently, 200 µL of P. falciparum culture at 0.25% parasitemia (3% haematocrit) was added to each well. The plates were then incubated for 72 h at 37 °C in 5% CO2 in a humidified incubator. Plates were then subjected to freeze–thaw to achieve complete haemolysis. PfHRP2 levels in control and test samples were measured using a horseradish peroxidase enzyme-linked immunosorbent assay at 450 nm. GraphPad Prism 9.2.0 was used to perform non-linear regression analysis to determine the IC50 values.
(§1) Non-linear regression analysis was performed in GraphPad Prism 9.2.0 (San Diego, CA, USA) to fit four parameter dose–response curves using the formula: y = a + ((b − a)/(1 + 10^(Log(c) − x) × d)), where a and b are the minimum and maximum asymptotes respectively, c is the half-maximal inhibitory concentration value (IC50), and d is the slope at the steepest part of the curve (the Hill slope).

PfIMPα:TGS1-NLS-GFP = PfIMPα:TGS1-NLS-GFP (Plasmodium falciparum, UniProt Q8IAW0); test: AlphaScreen binding assay, inhibition of PfIMPα binding to TGS1-NLS-GFP; design: species or system P. falciparum
TgIMPα:T-ag-NLS-GFP = TgIMPα:T-ag-NLS-GFP (Toxoplasma gondii, UniProt A0A125YID0); test: AlphaScreen binding assay, inhibition of TgIMPα binding to T-ag-NLS-GFP
Method: (§2) IC50 analysis was performed in quadruplicate using an AlphaScreen binding assay as previously, using bacterially expressed glutathione S-transferase (GST)-C-terminally tagged PfIMPα and TgIMPα proteins, as well as SV40 T-ag-NLS-GFP fusion protein and MmIMPβ1 [11, 41]. As previously, nickel-acceptor and streptavidin-donor beads were used. The AlphaScreen signal was measured on a Perkin Elmer plate reader, and IC50 plots drawn using GraphPad Prism 9.0.2 (San Diego, CA, USA).
as §1

MmΔIBBIMPα:T-ag-NLS-GFP = biological target: T1, MmΔIBBIMPα:T-ag-NLS-GFP (Mus musculus, UniProt P52293); test: AlphaScreen binding assay, inhibition of MmΔIBBIMPα binding to T-ag-NLS-GFP
T1 construct: made in house

PfIMPα:MmIMPβ1 = PfIMPα:MmIMPβ1 (Plasmodium falciparum, UniProt Q8IAW0); test: AlphaScreen binding assay, inhibition of PfIMPα binding to MmIMPβ1
Method: as §2, §1

TgIMPα:MmIMPβ1 = TgIMPα:MmIMPβ1 (Toxoplasma gondii, UniProt A0A125YID0); test: AlphaScreen binding assay, inhibition of TgIMPα binding to MmIMPβ1
Method: as §2, §1

MmIMPα:MmIMPβ1 = biological target: T2, MmIMPα:MmIMPβ1 (Mus musculus, UniProt P52293); test: AlphaScreen binding assay, inhibition of MmIMPα binding to MmIMPβ1
T2 construct: GST; made in house

PfIMPα [1] = biological target: T3, PfIMPα (Plasmodium falciparum, UniProt Q8IAW0); test: Intrinsic tryptophan fluorescence assay, PfIMPα; format: binding
Method: (§3) Tryptophan fluorescence spectroscopy experiments were performed using a JASCO Fluorescence Spectrophotometer (JASCO, Hachioji, Tokyo, Japan) (0.5 mL quartz cuvette), with a fixed excitation wavelength of 295 nm and emission spectra collected between 310 and 400 nm with a slit width of 5 nm at 25 °C. Increasing concentrations of compounds in DMSO were incubated with the IMPαs (1 µM) in PBS for 5 min at room temperature prior to measurement. Data from three independent experiments were analysed using GraphPad Prism 10 (San Diego, CA, USA). Non-linear regression analysis was used to fit the one-site binding curves using the equation: y = Bmax * x/(Kd + x), where Bmax represents the maximum binding capacity and Kd is the dissociation constant, reflecting the concentration of ligand at which half-maximal binding is achieved.

TgIMPα [2] = biological target: T4, TgIMPα (Toxoplasma gondii, UniProt A0A125YID0); test: Intrinsic tryptophan fluorescence assay, TgIMPα; format: binding
Method: as §3

MmIMPα [3] = biological target: T5, MmIMPα (Mus musculus, UniProt P52293); test: Intrinsic tryptophan fluorescence assay, MmIMPα; format: binding; conditions: pooled, mean ± SEM (n = 3); IMPα 1 µM, 340 nm
T5 construct: GST; made in house
Method: as §3

[4] = tested on: T. gondii RH strain expressing a luciferase reporter (RH-Fluc) tachyzoites; test: T. gondii tachyzoite growth inhibition assay (luciferase) in HFF host cells; format: cell-based; conditions: 48 h, luminescence, mean ± SD (n = 3)
Method: A T. gondii RH strain expressing a luciferase reporter (RH-Fluc) was used to assess the effect of the inhibitors on growth as described. T. gondii tachyzoites were maintained and cultured at 37 °C in 5% CO2 in a humidified incubator using primary human foreskin fibroblasts (HFF, ATCC) maintained in Dulbecco’s modified Eagle medium (DMEM) (GibcoTM, Waltham, MA, USA) supplemented with 3.7 g/L sodium bicarbonate and 2.38 g/L HEPES, 10% Cosmic Calf serum (HycloneTM, Logan, UT, USA) and 20 mg/L gentamicin [46, 47]. Growth inhibition was monitored by luminescence, where 100 μL of culture medium without or with inhibitors, followed by 100 µL of DMEM containing 5000 parasites, were added to confluent monolayers of HFF cells in 96-well culture dishes (Eppendorf, Hamburg, Germany). After 48 h, 150 µL of the culture medium was discarded from each well, and 10 µL lysis buffer was added to lyse the parasites, followed by 50 μL of 2× luciferase assay reagent (Promega, Madison, WI, USA). Luminescence was then measured directly for 10 s using a Varioskan™ LUX multimode microplate reader (Thermo Fisher Scientific, Waltham, MA, USA). […]

[5] = MTT assay for host cell cytotoxicity; format: cell-based; conditions: human, HFF cells (freshly confluent), mean ± SD (n = 2)
Method: The MTT assay was used to measure the cytotoxicity of the small molecules against the HFF cells as described. Briefly, freshly confluent HFF cells were incubated for 48 h in a 96-well culture plate at 37 °C in a humidified incubator (5% CO2 atmosphere) in the presence of increasing concentrations of compounds (total volume 200 uL). A 10 μL quantity of MTT reagent (Sigma Aldrich) prepared in complete DMEM medium was then added to each well, and incubation continued for a further 3 h. 150 μL of the medium containing the MTT reagent was then removed from each well and replaced with 150 μL DMSO. Plates were then incubated room temperature in the dark for 20 min, after which absorbance for each well was measured at 570 nm. Data were analysed in GraphPad Prism 9 software.

PfIMPα [6] = biological target: T3, PfIMPα; test: Far-UV CD spectroscopy, PfIMPα; format: binding; conditions: 30 or 80 μM compound
Method: (§4) CD spectroscopy experiments were carried out to assess direct binding of moxidectin and ivermectin to different IMPαs as described. CD spectra at […] protein concentration were recorded from 200–260 nm using a Jasco CD spectrometer (Jasco, Easton, MD, USA) in the absence and presence of 30 or 80 μM ivermectin or moxidectin, with percentage α-helix content estimated from the ellipticity at 222 nm as described using the CD Multivariate secondary structure estimation analysis program.

TgIMPα [7] = biological target: T4, TgIMPα; test: Far-UV CD spectroscopy, TgIMPα; format: binding; conditions: 30 or 80 μM compound
Method: as §4

MmIMPα [8] = biological target: T5, MmIMPα; test: Far-UV CD spectroscopy, MmIMPα; format: binding; conditions: 30 or 80 μM compound
Method: as §4

[9] = Plasmodium falciparum, 3D7, 72 h, asexual stages, pooled, mean ± SD (n = 3)
[10] = Plasmodium falciparum, 3D7, 72 h, single typical experiment of Figure 5, duplicate
[11] = single experiment of Figure 1b, quadruplet wells
[12] = pooled, mean ± SEM (n = 3), MmIMPβ1 30 nM, IMPα 30 nM
[13] = single typical experiment of Figure 2, quadruplet wells
[14] = pooled, mean ± SEM (n = 3), IMPα 1 µM, 340 nm
[15] = single typical set of measurements, Figure 4b

T3 sequence (Q8IAW0 entry or part of it): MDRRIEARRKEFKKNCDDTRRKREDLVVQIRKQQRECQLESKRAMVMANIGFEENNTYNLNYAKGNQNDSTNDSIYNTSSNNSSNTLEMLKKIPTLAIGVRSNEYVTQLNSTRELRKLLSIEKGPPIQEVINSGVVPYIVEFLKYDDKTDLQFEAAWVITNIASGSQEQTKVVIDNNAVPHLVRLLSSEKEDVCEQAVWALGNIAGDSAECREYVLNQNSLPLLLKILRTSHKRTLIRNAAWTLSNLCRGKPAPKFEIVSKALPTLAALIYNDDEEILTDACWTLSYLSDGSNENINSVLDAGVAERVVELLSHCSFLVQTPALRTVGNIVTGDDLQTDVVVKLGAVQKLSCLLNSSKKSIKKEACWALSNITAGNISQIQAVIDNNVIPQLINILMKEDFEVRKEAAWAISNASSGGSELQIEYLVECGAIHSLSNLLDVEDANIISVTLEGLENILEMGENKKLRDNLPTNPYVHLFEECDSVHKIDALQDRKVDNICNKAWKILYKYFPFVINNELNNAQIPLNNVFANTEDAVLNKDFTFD
T4 sequence (A0A125YID0 entry or part of it): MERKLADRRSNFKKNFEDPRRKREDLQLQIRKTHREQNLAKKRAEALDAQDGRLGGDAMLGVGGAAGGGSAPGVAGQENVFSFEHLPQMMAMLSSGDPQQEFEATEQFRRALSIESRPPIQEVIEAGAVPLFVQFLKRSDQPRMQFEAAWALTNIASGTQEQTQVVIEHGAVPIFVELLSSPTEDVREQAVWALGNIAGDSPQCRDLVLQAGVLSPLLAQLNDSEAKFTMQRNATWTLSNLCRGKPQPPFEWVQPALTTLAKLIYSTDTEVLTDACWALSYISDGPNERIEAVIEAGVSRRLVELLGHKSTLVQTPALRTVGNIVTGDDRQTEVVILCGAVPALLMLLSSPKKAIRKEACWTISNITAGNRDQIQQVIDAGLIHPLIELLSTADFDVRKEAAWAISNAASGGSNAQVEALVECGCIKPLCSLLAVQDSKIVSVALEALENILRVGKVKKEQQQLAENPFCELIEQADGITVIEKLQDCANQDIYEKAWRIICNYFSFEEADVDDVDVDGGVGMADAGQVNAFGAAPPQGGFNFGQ
PfIMPα:MmIMPβ1, sequence (Q8IAW0 entry or part of it): as the sequence (Q8IAW0 entry or part of it) above
PfIMPα:MmIMPβ1, sequence (P70168 whole entry, further chain): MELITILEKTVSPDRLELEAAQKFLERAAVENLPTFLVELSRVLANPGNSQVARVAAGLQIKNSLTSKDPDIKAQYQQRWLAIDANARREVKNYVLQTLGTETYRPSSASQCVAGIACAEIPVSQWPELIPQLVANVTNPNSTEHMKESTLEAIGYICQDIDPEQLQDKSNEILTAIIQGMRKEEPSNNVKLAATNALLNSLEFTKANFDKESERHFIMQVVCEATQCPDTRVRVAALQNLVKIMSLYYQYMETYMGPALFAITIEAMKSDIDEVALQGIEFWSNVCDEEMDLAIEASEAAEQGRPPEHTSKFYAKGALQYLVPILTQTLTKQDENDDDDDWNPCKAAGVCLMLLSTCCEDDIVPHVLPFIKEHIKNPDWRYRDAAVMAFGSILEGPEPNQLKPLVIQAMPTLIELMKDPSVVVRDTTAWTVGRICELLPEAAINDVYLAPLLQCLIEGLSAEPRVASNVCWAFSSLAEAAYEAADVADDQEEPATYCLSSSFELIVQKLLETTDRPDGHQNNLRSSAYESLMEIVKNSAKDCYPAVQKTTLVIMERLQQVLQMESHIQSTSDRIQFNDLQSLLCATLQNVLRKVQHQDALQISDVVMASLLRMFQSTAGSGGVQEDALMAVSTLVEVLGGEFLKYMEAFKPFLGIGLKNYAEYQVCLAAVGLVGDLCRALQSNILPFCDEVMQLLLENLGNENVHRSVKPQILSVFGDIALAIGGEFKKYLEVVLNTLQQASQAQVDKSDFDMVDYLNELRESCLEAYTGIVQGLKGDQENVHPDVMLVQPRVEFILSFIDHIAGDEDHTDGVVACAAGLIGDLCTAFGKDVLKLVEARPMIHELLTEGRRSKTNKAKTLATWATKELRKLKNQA
PfIMPα:TGS1-NLS-GFP, sequence (Q8IAW0 entry or part of it): as the sequence (Q8IAW0 entry or part of it) above
TgIMPα:MmIMPβ1, sequence (P70168 whole entry): as the sequence (P70168 whole entry, further chain) above
TgIMPα:MmIMPβ1, sequence (A0A125YID0 entry or part of it): as the sequence (A0A125YID0 entry or part of it) above
TgIMPα:T-ag-NLS-GFP, sequence (A0A125YID0 entry or part of it): as above

Compound `C[C@H]1[C@@H](O)O[C@@H]2O[C@@]3(C)CC[C@H]4[C@H](C)CC[C@@H]1[C@@]24OO3` [DHA, dihydroartemisinin] has an IC50 (P. falciparum 3D7 strain; [9]) of 0.001 ± 0.0005 µM and an IC50 (P. falciparum 3D7 strain; [10]) of 0.0007 µM.

`CO/N=C1\C[C@]2(C[C@@H]3C[C@@H](C/C=C(\C)C[C@@H](C)/C=C/C=C4\CO[C@@H]5[C@H](O)C(C)=C[C@@H](C(=O)O3)[C@]45O)O2)O[C@H](/C(C)=C/C(C)C)[C@H]1C` [Moxidectin, moxidectin] gave an IC50 (PfIMPα:TGS1-NLS-GFP; pooled, mean ± SEM (n = 3), IMPα 5 nM, NLS protein 30 nM) of 4.8 ± 0.4 µM, an IC50 (PfIMPα:TGS1-NLS-GFP; [11]) of 4.6 µM and an IC50 (TgIMPα:T-ag-NLS-GFP; pooled, mean ± SEM (n = 3), IMPα 5 nM, NLS protein 30 nM, read-out: IC50 inhibition of TgIMPα:Tag-NLS-GFP binding) of 3.8 ± 0.8 µM. It also gave an IC50 (TgIMPα:T-ag-NLS-GFP; [11]) of 3.6 µM, an IC50 (MmΔIBBIMPα:T-ag-NLS-GFP; pooled, mean ± SEM (n = 3), IMPα 5 nM, NLS protein 30 nM, read-out: IC50 inhibition of MmΔIBBIMPα:Tag-NLS-GFP binding) of 3.6 ± 0.5 µM and an IC50 (MmΔIBBIMPα:T-ag-NLS-GFP; [11]) of 2.8 µM. For the same compound, the IC50 (PfIMPα:MmIMPβ1; [12]) was 3.4 ± 0.4 µM, the IC50 (PfIMPα:MmIMPβ1; [13]) was 3.8 µM and the IC50 (TgIMPα:MmIMPβ1; [12]) was 2.7 ± 0.2 µM. For the same compound, the IC50 (TgIMPα:MmIMPβ1; [13]) was 3.2 µM, the IC50 (MmIMPα:MmIMPβ1; [12]) was ~4 µM and 4 µM and the IC50 (MmIMPα:MmIMPβ1; [13]) was 4.7 µM. The Kd (PfIMPα [1]; [14]) was 7.8 ± 1.2 µM, the Kd (PfIMPα [1]; [15]) was 8.3 µM and the Kd (TgIMPα [2]; [14]) was 19 ± 2.2 µM. The Kd (TgIMPα [2]; [15]) was 19.3 µM, the Kd (MmIMPα [3]) was 4.1 ± 0.2 µM and the IC50 (P. falciparum 3D7 strain; [9]) was 1 µM. For the same compound, the IC50 (P. falciparum 3D7 strain; [10]) was 0.8 µM, the IC50 (P. falciparum 3D7 strain; asexual stages, 72 h, pooled, mean ± SD (n = 3)) was 0.9 ± 0.1 µM and the IC50 [4] was 35 ± 3.1 µM. For the same compound, the IC50 ([4]; Toxoplasma gondii) was 30 to 35 µM, the CC50 at 48 h [5] was ~10 µM and the “Effect on α-helicity of PfIMPα (CD spectra)” value (PfIMPα [6]) was “concentration-dependent reduction in α-helicity”. The “Effect on α-helicity of TgIMPα (CD spectra)” value (TgIMPα [7]) was “concentration-dependent reduction in α-helicity” and the “Effect on α-helicity of MmIMPα (CD spectra)” value (MmIMPα [8]) was “concentration-dependent reduction in α-helicity”.
